Data on 2 molecules can be found in patent US5039512A, “NMR imaging with paramagnetic polyvalent metal salts of poly-(acid-alkylene-amino)-alkanes” (Salutar, Inc., priority 1987, dated 1991).

For data set [1] the following is noted: in vivo; cited from earlier work.
For data set [2] the following is noted: in vivo.
Data set [3] is described as follows: Relaxivities (T1, T2) of protons in water exposed to the complexes. It counts as physicochemical. The conditions noted are these: Table 5. The procedure: (§1) c) Relaxitivities of protons present in water and plasma exposed to the complexes of (a) and (b) (at 10 mHz) (37° C.) in milliseconds:
(§2) c) Relaxivities of protons present in water and plasma exposed to (a) and (b) at 10 mHz (37 C) in milliseconds: […]

The conditions of data set [4]: in vivo; cited from earlier work. The source holds these as a separate data set.
Data set [5] in a line: Relaxivities (T1, T2) of protons in plasma exposed to the complexes. The class given is physicochemical. The procedure: as §1, §2
The nature of data set [6]: Stability constant (binding ability) towards manganese. The conditions noted are these: relative to the EDTA chelate.
Setting [7] is: Table 5, 1.56 × 10^-3 moles/liter.
[8] abbreviates: Table 5, 3.13 × 10^-3 moles/liter.
[9] abbreviates: Table 5, 6.25 × 10^-3 moles/liter.

Molecules are shown by their SMILES.

For `O=C([O-])CN(CCN(CC(=O)[O-])CC(=O)O)CCN(CC(=O)[O-])CC(=O)O.[Gd+3]` [Gd DTPA, gadolinium chelate of diethylene-triamine-pentaacetic acid], in data set [1], the “Uptake by solid organs” value is “virtually no uptake by any solid organ”. The Organ distribution result in data set [2] is listed as “does not substantially interact with the hepatobiliary system”. The T1 water is 163 ms in data set [3] (1.56 × 10^-3 moles/liter); 1015 ms in data set [3] (1.95 × 10^-4 moles/liter); 83 ms in data set [3] (3.13 × 10^-3 moles/liter); 582 ms in data set [3] (3.91 × 10^-4 moles/liter); 40 ms in data set [3] (6.25 × 10^-3 moles/liter); 309 ms in data set [3] (7.81 × 10^-4 moles/liter). Also, the T2 water in data set [3] (1.56 × 10^-3 moles/liter) came to 155 ms; in data set [3] (3.13 × 10^-3 moles/liter) it was 76 ms; in data set [3] (6.25 × 10^-3 moles/liter) it was 35 ms. The “Post T1 fat” value in data set [4] is 185 milliseconds. Besides, in data set [4], the “Post T1 kidneys” value was 205 milliseconds. The “Post T1 liver” value in data set [4] is reported as 195 milliseconds. In addition, the “Post T1 muscle” value in data set [4] is listed as 335 milliseconds. The “Post T1 spleen” value in data set [4] is recorded as 285 milliseconds. For the same molecule, the T1 plasma in data set [5] (9.77 × 10^-5 moles/liter) was 877 ms; in data set [5] (setting [7]), 134 ms; in data set [5] (Table 5, 1.95 × 10^-4 moles/liter), 636 ms; in data set [5] (setting [8]), 69 ms; in data set [5] (Table 5, 3.91 × 10^-4 moles/liter), 405 ms; in data set [5] (setting [9]), 39 ms. The T1 plasma in data set [5] (Table 5, 7.81 × 10^-4 moles/liter) turned out to be 240 ms. For the same molecule, the T2 plasma stood at 116 ms in data set [5] (setting [7]), 61 ms in data set [5] (setting [8]) and 31 ms in data set [5] (setting [9]).
For the molecule `O=C(O)CN(CC(=O)O)[C@@H]1CCCC[C@H]1N(CC(=O)O)CC(=O)O` (relative stereo) [DCTA, trans-N,N,N',N'-tetra-carboxymethyl-1,2-diaminocyclohexane], the “Stability constant (binding ability) towards manganese” value in data set [6] was “several thousand times better”.
